Key:
SNI rats = experiment: Spared nerve injury (SNI)-induced mechanical allodynia, paw withdrawal threshold; format: in vivo, rats (Sprague Dawley, male); conditions: day 21 after surgery, 2.14 mg/5 ml intrathecally, n=5
Method: FIG. 8 is a line graph showing antagonism of NRP-1/VEGF-A signaling using compound 4. […] SNI elicited mechanical allodynia 21 days after surgery. Paw withdrawal thresholds for SNI rats (Sprague Dawley, male) administered saline (vehicle) or NRP-1 inhibitor (2.14 mg/5 ml) intrathecally (i.t.); n=5). P values, versus control, are indicated. Data are shown as mean±s.e.m. and were analyzed by non-parametric two-way analysis of variance where time was the within subject factor and treatment was the between subject factor (post hoc: Sidak). The experiments were analyzed by an investigator blinded to the treatment. […]
The assessment of tactile allodynia (i.e., a decreased threshold for paw withdrawal after probing with normally innocuous mechanical stimuli) involved testing the withdrawal threshold of the paw in response to probing with a series of calibrated fine (von Frey) filaments. […] The withdrawal threshold was determined by sequentially increasing and decreasing the stimulus strength (the ‘up and down’ method, and the data analyzed using the nonparametric method of Dixon (as described by Chaplan and Bach, J. Neurosci. Meth. 1994, 53, 55-63) with results expressed as the mean withdrawal threshold. The withdrawal threshold is a level that is statistically significant. Typically, greater than 50% deviation from the baseline could be allodynic.

pY1175 VEGFR2 = experiment: In cell Western for detecting inhibition of VEGFR2 activation by VEGF-A165; format: cell-based, mouse; conditions: CAD cells, absence of stimulation by VEGF-A
NRP-1/VEGF-A interaction [1] = target: T1, NRP-1/VEGF-A interaction (Homo sapiens, UniProt O14786); experiment: ELISA-based NRP1-VEGF-A165 protein binding assay (concentration-response, IC50); conditions: 20 nM biotinylated hVEGF-A165 with 4 μg/ml heparin, n=3, read-out: Calculated IC50 values of inhibiting the NRP-1/VEGF-A interaction
T1 construct: coated with the extracellular domain of human NRP-1 (containing the a1a2 and the b1b2 regions); purchased Fisher, Hampton, NH 50-101-8343
T1 sequence (O14786 22-856 limits assumed): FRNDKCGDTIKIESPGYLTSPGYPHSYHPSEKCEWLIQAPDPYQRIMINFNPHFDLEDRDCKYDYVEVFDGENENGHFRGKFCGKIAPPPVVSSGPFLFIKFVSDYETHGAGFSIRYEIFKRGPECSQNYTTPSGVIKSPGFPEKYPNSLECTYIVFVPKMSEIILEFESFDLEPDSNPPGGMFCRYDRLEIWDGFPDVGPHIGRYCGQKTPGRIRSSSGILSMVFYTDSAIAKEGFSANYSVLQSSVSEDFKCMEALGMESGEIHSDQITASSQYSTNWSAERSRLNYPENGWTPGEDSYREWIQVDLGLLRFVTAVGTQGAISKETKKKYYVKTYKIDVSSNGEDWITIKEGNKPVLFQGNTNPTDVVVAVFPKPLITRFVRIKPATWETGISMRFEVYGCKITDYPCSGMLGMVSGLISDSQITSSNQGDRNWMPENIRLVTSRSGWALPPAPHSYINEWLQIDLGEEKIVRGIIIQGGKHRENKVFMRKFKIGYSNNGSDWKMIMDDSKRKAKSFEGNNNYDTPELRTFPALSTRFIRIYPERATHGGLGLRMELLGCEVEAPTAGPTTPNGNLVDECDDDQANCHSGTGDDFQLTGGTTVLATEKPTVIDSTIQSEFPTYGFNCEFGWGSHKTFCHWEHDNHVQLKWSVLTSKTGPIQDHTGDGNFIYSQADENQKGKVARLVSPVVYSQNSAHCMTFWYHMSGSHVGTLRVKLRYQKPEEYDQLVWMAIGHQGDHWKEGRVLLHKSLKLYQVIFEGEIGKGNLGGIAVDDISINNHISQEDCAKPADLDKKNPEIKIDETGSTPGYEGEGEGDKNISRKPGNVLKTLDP
Method: Plates (96-well, Nunc Maxisorp; Thermo Fisher Scientific, Waltham, MA, USA) were coated with human Neuropilin-1-Fc (200 ng per well, Cat #50-101-8343, Fisher, Hampton, NH) and incubated at 4° C. overnight. The following day, the plates were washed and blocked with 3% BSA in PBS to minimize non-specific adsorptive binding to the plates. EG00229 (Cat #6986, Tocris) or the indicated compounds were added at different concentrations and incubated for 30 min at room temperature prior to adding biotinylated human VEGF-A165 (Cat #BT10543-025, R&D systems) at 20 nM with 4 μg/ml of heparin. As a negative control, some wells received PBS containing 3% BSA and as a positive control only hVEGF-A165 was used. The plates were incubated at room temperature with shaking for 2 h. Next, the plates were washed with PBS 0.05% Tween to eliminate unbound protein. Bound biotinylated VEGF was detected by streptavidin-HRP (Cat #016-030-084, Jackson immunoResearch). Tetramethylbenzidine (Cat #DY999, R&D Systems, St. Louis, MO) was used as the colorimetric substrate. The optical density of each well was determined immediately, using a microplate reader (Multiskan Ascent; Thermo Fisher Scientific) set to 450 nm with a correction wavelength of 570 nm. Percentage of inhibition was calculated by the following formula: […]
where S is the optical density measured in the wells with the compounds, N is the optical density measured in the negative control wells and P is the optical density in the positive control wells. The IC50 was calculated using a non-linear regression function with GraphPad Prism Version 9. The data are presented as log (inhibitor) [M] versus normalized response-variable slope. Data are the means±S.E.M. of three independent experiments.
Finally, the ability of the compounds to interfere with the NRP-1NEGF-A interaction was evaluated using an enzyme linked immunosorbent assay (ELISA), as previously described (Moutal, et al., Pain 2021, 12(1), 243-252). Plates were coated with the extracellular domain of human NRP-1 (containing the a1a2 and the b1b2 regions) and the compounds were added to disrupt the NRP-1NEGF-A interaction. The biotinylated human VEGF-A used in the experiments described above (Moutal, et al., Pain 2021, 12(1), 243-252) was discontinued. For the instant studies, biotinylated hVEGF-A (Cat #BT10543-025, R&D systems) was used. Because of that, the known NRP-1 antagonist EG00229 and compound 4 from the above series of inhibitors (Moutal, et al., Pain 2021, 12(1), 243-252) were also tested in the instant studies.

NRP-1/VEGF-A interaction [2] = target: T1, NRP-1/VEGF-A interaction; experiment: ELISA-based NRP1-VEGF-A165 protein binding assay (single concentration); conditions: compounds 12.5 μM (Spike S1 100 nM), biotinylated VEGF-A165 10 nM; ± standard error of the mean, n = 11

SMILES: Cc1nc(N2CCOCC2)ncc1-c1cc(=O)[nH]c(Nc2ccccc2)n1 [Compound 4]
- reversal of SNI-induced mechanical allodynia (paw withdrawal threshold) (SNI rats): reverses spared nerve injury (SNI)-induced mechanical allodynia
- inhibition of basal VEGFR2 phosphorylation (pY1175 VEGFR2): showed inhibition
- IC50 (NRP-1/VEGF-A interaction [1]): 8.4 µM
- Rel % inhibition (NRP-1/VEGF-A interaction [2]): 68 ± 5%
